Laboratory results: publication PMC10558427, “A Theobromine Derivative with Anticancer Properties Targeting VEGFR‐2: Semisynthesis, in silico and in vitro Studies” (ChemistryOpen, 2023)

Target: T1, VEGFR‐2 (Homo sapiens, UniProt P35968)
T1 construct: gene KDR
Experiment: in vitro VEGFR-2 inhibition assay (Human VEGFR ELISA kit)
Format: biochemical

T1 sequence (P35968 20-1356): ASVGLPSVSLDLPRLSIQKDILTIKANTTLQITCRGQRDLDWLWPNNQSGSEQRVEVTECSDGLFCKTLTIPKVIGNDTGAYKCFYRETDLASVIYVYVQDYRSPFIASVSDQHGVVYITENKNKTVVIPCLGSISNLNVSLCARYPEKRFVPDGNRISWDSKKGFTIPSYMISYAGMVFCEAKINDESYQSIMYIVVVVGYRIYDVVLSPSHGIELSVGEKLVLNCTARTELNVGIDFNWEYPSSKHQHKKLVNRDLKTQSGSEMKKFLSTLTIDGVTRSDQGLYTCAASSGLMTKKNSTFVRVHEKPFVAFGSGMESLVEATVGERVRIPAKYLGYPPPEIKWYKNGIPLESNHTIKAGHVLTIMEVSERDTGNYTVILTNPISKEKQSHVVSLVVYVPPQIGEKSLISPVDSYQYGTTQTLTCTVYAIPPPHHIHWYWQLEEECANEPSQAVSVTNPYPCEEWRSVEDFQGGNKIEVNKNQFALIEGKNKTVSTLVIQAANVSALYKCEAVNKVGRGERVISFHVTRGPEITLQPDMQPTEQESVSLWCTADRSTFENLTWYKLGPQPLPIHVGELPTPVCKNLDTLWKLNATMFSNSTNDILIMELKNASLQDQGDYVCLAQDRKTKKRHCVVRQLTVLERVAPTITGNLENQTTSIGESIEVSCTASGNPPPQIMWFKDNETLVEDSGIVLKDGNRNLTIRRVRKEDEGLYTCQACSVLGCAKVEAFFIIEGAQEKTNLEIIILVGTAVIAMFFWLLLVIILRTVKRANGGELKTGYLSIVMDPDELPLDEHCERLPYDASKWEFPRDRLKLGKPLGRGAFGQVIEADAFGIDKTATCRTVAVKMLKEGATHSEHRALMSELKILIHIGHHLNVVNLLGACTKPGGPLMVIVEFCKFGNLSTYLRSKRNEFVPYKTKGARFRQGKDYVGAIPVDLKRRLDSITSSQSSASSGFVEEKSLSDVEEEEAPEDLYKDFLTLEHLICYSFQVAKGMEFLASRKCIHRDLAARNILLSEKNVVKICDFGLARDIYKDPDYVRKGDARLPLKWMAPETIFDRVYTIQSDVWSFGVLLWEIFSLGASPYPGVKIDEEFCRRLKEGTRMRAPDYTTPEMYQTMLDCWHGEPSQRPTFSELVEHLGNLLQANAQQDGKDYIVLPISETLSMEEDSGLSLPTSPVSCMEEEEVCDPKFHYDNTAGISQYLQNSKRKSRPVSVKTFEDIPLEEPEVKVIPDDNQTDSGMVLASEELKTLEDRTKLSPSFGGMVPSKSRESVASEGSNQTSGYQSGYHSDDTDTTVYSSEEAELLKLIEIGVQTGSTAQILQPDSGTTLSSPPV

## Cn1cnc2c1c(=O)n(CC(=O)Nc1ccc(C(=O)Nc3ccc(F)cc3)cc1)c(=O)n2C [T-1-AFPB, 4‐(2‐(3,7‐Dimethyl‐2,6‐dioxo‐2,3,6,7‐tetrahydro‐1H‐purin‐1‐yl)acetamido)‐N‐(4‐fluorophenyl)benzamide]
  IC50: 69 ± 3 nM
